The results in this text go back to patent US20240246992A1, “MACROCYCLIC LRRK2 KINASE INHIBITORS” (LES LABORATOIRES SERVIER, priority 2021, published 2024).

As a reminder, the IC50 is the concentration that gives 50% inhibition.

Where only a bound is given, the exact number is not on record here.

human recombinant LRRK2 protein, sequence (Q5S007 whole entry): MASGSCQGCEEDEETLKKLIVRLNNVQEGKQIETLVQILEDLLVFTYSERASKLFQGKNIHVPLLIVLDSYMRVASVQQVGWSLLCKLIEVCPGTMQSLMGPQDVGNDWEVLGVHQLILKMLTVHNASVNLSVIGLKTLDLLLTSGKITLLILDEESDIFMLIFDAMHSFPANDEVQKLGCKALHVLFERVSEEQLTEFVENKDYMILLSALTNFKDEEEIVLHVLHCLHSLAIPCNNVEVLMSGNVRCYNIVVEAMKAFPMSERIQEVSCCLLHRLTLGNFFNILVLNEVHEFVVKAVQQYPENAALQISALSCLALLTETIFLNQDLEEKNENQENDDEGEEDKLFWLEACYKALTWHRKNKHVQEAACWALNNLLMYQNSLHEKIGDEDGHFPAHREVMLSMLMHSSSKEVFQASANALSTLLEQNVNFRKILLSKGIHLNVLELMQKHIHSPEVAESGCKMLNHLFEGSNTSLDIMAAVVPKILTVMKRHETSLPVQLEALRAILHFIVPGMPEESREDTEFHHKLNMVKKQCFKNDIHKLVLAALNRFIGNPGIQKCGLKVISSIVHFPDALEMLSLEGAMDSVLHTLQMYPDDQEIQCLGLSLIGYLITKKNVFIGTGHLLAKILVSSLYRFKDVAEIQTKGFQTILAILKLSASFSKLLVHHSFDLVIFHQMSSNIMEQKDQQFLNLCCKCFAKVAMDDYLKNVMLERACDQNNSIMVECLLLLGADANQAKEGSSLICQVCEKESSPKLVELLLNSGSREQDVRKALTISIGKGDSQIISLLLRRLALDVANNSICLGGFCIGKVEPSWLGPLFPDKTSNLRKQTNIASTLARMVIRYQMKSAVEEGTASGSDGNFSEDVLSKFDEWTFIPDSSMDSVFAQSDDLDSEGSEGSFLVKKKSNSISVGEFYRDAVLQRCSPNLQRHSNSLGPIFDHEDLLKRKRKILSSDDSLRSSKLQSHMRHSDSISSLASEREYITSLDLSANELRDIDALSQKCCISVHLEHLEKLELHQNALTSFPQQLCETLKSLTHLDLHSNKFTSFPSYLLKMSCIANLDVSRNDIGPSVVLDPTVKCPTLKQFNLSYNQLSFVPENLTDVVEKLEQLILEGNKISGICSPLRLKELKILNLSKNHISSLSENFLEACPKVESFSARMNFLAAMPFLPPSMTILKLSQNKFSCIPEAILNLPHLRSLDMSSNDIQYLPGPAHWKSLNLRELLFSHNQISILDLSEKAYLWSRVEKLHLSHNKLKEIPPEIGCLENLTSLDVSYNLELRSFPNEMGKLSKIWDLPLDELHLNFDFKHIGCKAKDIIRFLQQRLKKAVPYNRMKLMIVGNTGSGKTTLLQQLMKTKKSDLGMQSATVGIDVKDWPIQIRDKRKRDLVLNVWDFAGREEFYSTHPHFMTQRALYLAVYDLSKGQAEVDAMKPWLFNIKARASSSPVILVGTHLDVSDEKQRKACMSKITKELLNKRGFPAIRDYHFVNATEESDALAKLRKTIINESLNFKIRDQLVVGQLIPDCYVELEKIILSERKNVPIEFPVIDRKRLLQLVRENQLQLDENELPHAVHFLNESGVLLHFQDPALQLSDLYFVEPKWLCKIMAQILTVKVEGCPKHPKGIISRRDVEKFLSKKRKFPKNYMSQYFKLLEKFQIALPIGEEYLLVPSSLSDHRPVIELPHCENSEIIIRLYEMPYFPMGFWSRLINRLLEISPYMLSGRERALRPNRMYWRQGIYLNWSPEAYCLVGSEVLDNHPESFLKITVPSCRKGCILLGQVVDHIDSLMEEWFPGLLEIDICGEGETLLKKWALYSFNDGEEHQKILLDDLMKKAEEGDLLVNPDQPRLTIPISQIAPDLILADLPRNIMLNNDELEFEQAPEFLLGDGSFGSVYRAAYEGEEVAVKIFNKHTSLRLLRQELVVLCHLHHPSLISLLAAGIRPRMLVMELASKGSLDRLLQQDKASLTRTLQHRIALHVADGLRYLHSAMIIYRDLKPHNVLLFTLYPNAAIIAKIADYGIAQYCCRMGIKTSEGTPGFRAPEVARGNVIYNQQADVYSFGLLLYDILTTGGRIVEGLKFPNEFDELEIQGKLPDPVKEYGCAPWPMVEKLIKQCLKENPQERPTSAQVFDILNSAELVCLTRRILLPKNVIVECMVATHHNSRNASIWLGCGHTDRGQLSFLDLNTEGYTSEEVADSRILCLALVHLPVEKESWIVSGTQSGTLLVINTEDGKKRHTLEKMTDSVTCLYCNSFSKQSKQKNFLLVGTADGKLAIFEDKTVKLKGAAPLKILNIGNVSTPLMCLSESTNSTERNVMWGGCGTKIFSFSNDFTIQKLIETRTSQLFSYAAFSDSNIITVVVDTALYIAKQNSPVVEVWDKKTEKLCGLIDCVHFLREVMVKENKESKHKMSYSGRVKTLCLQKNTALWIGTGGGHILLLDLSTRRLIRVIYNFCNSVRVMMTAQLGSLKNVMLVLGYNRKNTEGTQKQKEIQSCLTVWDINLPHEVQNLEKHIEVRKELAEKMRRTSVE

The target of the assay is human recombinant LRRK2 protein (Homo sapiens, UniProt Q5S007). The experiment in a line: LRRK2 kinase activity assay (ADP-Glo, LRRKtide peptide). The class given is biochemical. To be noted: human recombinant LRRK2 wt, LRRKtide peptide and ATP, 1 h at 37° C. On the procedure:
The inhibition of LRRK2 kinase was assessed using human recombinant LRRK2 protein in an in vitro peptide-based kinase assay.
LRRK2 Kinase reactions were carried out in 384-well white polystyrene plates in a final volume of 6 μl using ADP-Glo™ Kinase Assay kit (Promega Corp.). Compound and substrates (LRRKtide peptide and ATP) in assay buffer were first dispensed in wells. Kinase reaction was then started by the addition of human recombinant LRRK2 protein. After 1 h-incubation at 37° C., the enzymatic reactions was stopped by the addition of 6 μl of ADP-Glo Reagent-1 and an additional 40-minutes incubation at 23° C. (residual ATP depletion). A final 30-minutes incubation after 12 μL reagent-2 addition (ADP to ATP conversion and luciferin/luciferase reaction) was performed before luminescent signal acquisition (EnVision™ multimode plate reader—PerkinElmer, Inc.). Data from 10 individual concentrations of tested compounds (N=2) were fitted (XLfit™—ID Business Solutions Ltd) to deliver IC50s (compound concentration leading to 50% inhibition of reference enzymatic activity).
The compounds are dissolved to 5 mM in DMSO. When needed, solutions are sonicated in a bath sonicator.
Table 2 provides the pIC50 values of the compounds according to the invention, obtained using the above mentioned kinase assay. Activities are represented as +++, ++ and +, having the following meanings: • «+++» means an IC50<10 nM • «++» means an IC50<100 nM • «+» means an IC50<1 μM • «−» means an IC50>1 μM
Background: ADP-Glo turns the ADP formed in a reaction into a luminescent signal.
Consider `C[C@@H]1COCCOCC(F)n2cc(cn2)-c2n[nH]c3ccc(cc23)O1` (single isomer, unassigned) [Example 105, (6R*,13R)-6-fluoro-13-methyl-8,11,14-trioxa-4,5,19,20-tetraazatetracyclo[13.5.2.1^2,5.0^18,21]tricosa-1(20),2(23),3, 15(22),16,18(21)-hexaene], for which the IC50 was below 10 nM. The result for `C[C@@H]1COCCOCC(F)n2cc(cn2)-c2n[nH]c3ccc(cc23)O1` (single isomer, unassigned) [Example 106, (6S*,13R)-6-fluoro-13-methyl-8,11,14-trioxa-4,5,19, 20-tetraazatetracyclo[13.5.2.1^2,5.0^18,21]tricosa-1(20),2(23),3,15(22),16,18(21)-hexaene] reads below 100 nM. The result for `COCC1CCOc2ccc3[nH]nc(c3c2)-c2cccc(c2)OCC(=O)N1` (single isomer, unassigned) [Example 150, (11S) or (11R)-11-(methoxymethyl)-7,14-dioxa-10,19,20-triazatetracyclo[13.5.2.1^2,6.0^18,21]tricosa-1(20),2(23),3,5,15,17,21-heptaen-9-one] reads below 100 nM; that for `COCC1CCOc2ccc3[nH]nc(c3c2)-c2cccc(c2)OCCN1` (single isomer, unassigned) [Example 151, (11S) or (11R)-11-(methoxymethyl)-7,14-dioxa-10,19,20-triazatetracyclo[13.5.2.1^2,6.0^18,21]tricosa-1(20),2(23),3,5,15,17,21-heptaene], below 100 nM.

On to `COCC1CCOc2ccc3[nH]nc(c3c2)-c2cccc(c2)OCC(=O)N1` (single isomer, unassigned) [Example 152, (11R) or (11S)-11-(methoxymethyl)-7,14-dioxa-10,19,20-triazatetracyclo[13.5.2.1^2,6.0^18,21]tricosa-1(20),2(23),3,5,15,17,21-heptaen-9-one], for which the IC50 is below 100 nM. As for `COCC1CCOc2ccc3[nH]nc(c3c2)-c2cccc(c2)OCCN1` (single isomer, unassigned) [Example 153, (11R) or (11S)-11-(methoxymethyl)-7,14-dioxa-10,19,20-triazatetracyclo[13.5.2.1^2,6.0^18,21]tricosa-1(20),2(23),3,5,15,17,21-heptaene], the IC50 was below 100 nM. `CC1CNCCCOc2ccc3[nH]nc(c3c2)-c2cc(cc(N3CCOCC3)c2)O1` (single isomer, unassigned) [Example 177, (8R) or (8S)-8-methyl-4-(morpholin-4-yl)-7,14-dioxa-10,19,20-triazatetracyclo[13.5.2.1^2,6.0^18,21]tricosa-1(20),2,4,6(23),15,17,21-heptaene]: the IC50 was below 10 nM. For `CC1CNCCCOc2ccc3[nH]nc(c3c2)-c2cc(cc(N3CCOCC3)c2)O1` (single isomer, unassigned) [Example 178, (8R) or (8S)-8-methyl-4-(morpholin-4-yl)-7,14-dioxa-10,19,20-triazatetracyclo[13.5.2.1^2,6.0^18,21]tricosa-1(20),2,4,6(23),15,17,21-heptaene] the value was below 10 nM; for `C[C@@H]1CNCC[C@H](C)Oc2ccc3[nH]nc(c3c2)-c2cncc(c2)O1` (single isomer, unassigned) [Example 229, (8R or 8S,13S)-8,13-dimethyl-7,14-dioxa-4,10,19,20-tetraazatetracyclo[13.5.2.1^2,6.0^18,21]tricosa-1(20),2,4,6(23),15(22),16,18(21)-heptaene], below 10 nM; for `C[C@H]1CCNC[C@H](C)Oc2cncc(c2)-c2n[nH]c3ccc(cc23)O1` (single isomer, unassigned) [Example 230, (8S or 8R,13S)-8,13-dimethyl-7,14-dioxa-4,10,19,20-tetraazatetracyclo[13.5.2.1^2,6.0^18,21]tricosa-1(20),2,4,6(23),15(22),16,18(21)-heptaene], below 100 nM.
